Results: patent US20170367390A1, “USE OF ELLAGIC ACID DIHYDRATE IN FOOD PRODUCTS AND NUTRACEUTICALS” (HALO LIFE SCIENCE, LLC, priority 2014, published 2017)
Entries after “also recorded” stand apart in the source; their conditions may differ.

Legend:
[1] = test system: mouse myoblast C2C12 cells; assay: Glucose uptake, 2-NBDG labeling, flow cytometry, C2C12; format: cell-based
Method: Cellular assays were performed using mouse myoblast C2C12 cells and MEF cells. […] Increased glucose uptake was indicated as increasing signal of 2-NBDG ([…]) in cells. Glucose uptake assays were carried out in a final incubation volume of 50 μl consisting of, 2-NBDG), (100 μM) in 1× Phosphate Buffered Saline w/Ca+, Mg+ (PBS++). The same buffer was used for washing cells. Insulin was used as a positive control. All testing compounds were prepared in 10% DMSO and diluted 1:100 for a final concentration of 0.1% DMSO (vehicle). Cells were culture to 70-90% confluence and then washed twice with PBS++. Cells were incubated for 30 minutes at 37° C. in PBS++. Nuclear stain, HCS CellMask stain (blue, Invitrogen), and/or testing compounds (ellagic acid dihydrate, insulin, or vehicle) were added. Cells were incubated for 30 min at 37° C. Cells were washed twice with PBS++ and incubated with 2-NBDG for 10 minutes. Cells were washed thrice with PBS++ and then imaged in PBS++. Alternatively, the final PBS wash was removed and cells were incubated with Accutase (Invitrogen) for 10 min at 37° C., neutralized with 10% FBS in 1×PBS, and analyzed by flow cytometry. An additional experiment was performed to measure glucose uptake in C2Cl2 cells exposed to metformin, insulin and ellagic acid dihydrate 2 (batch 2). FIG. 5C.

[2] = Saturation of test compound in 100% DMSO; format: physicochemical
Method: General Procedure. For Examples 2 through 7, all test compounds of interest were initially dissolved in 100% DMSO. Estimated saturation occurred at approximately 4 mM for ellagic acid dihydrate. The saturated solution was diluted 1:10 in 1×PBS; creating a 100× stock solution of 400 μM ellagic acid dihydrate. Working concentrations (1×), 4 μM, and more dilute concentrations of ellagic acid dihydrate were created by 1:10 dilutions into 0.1% DMSO. The resulting six dilutions ranged from 4 μM to 0.04 nM. Dose curves were analyzed using either Harmony software on the Operetta (Perkin Elmer) or Excel (Microsoft) for flow cytometry, which was performed on a BD Accuri (BD Biosciences).

Activity level in mice = format: in vivo, mouse; conditions: predicted from in vitro data of Example 5
Text: Activity levels in mice treated with ellagic acid dihydrate may be quantified by several procedures, such as those outlined in Turri, M. et al.; QTL Analysis Identifies Multiple Behavioral Dimensions in Ethological Tests of Anxiety in Laboratory Mice; Current Biology; 2001; 11(10): 725-734. Two examples of procedures taught therein follows. Gross Locomotor Activity in Home Cage: Mice are caged singly several days prior to home cage activity monitoring and subsequent testing. Activity in home cages are measured during the first 2 hours of the dark cycle on two consecutive days. Two infrared photo emitter-detector pairs, located outside the clear plastic home cage that divide the cage into three equal areas, are used to record gross locomotor activity on the floor of the home cage as the animal breaks the photo beams. The beam-break activity score consists of the square root of the number of beam breaks for each detector summed across the two test days. Magnitude of Activity in Home Cage: Mice are caged singly several days prior to home cage activity monitoring and subsequent testing. Activity in home cages are measured during the first 2 hours of the dark cycle on two consecutive days. An infrared motion detector located above the top of the home cage is employed to converts all motion sensed within the home cage into arbitrary units, based on the magnitude of activity detected.

[3] = Weight loss and blood glucose in female SWV mice with STZ induced diabetes, 30 days gavage; format: in vivo, mouse; conditions: STZ diabetic mice; predicted from in vitro data of Example 5
Method: Weight loss and blood glucose in diabetes induced mice treated with ellagic acid was determined and weight loss and blood glucose in mice treated with ellagic acid dihydrate may be determined by the following procedures. Induction of Diabetes: Diabetes is induced in mice by intraperitoneal injection with Streptozotocin (STZ 40 mg/kg) daily for five days. The mice are considered hyperglycemic when the glucose level of each dam is above 200 mg/dL. The mice are fasted for 4 hours before STZ injection and glucose measurement. Treatment: The mice are treated daily for thirty days with ellagic acid or control in the form of a supplemental pill homogenized and suspended in 25% water solution of Cremophor EL. The mice are treated for one month via gavage using the human equivalent dose of 122.4 mg pill/kg of subject (40.6 mg ellagic acid/kg of the subject), the human equivalent does of 40.6 mg ellagic acid/kg of the subject using 98% pure ellagic acid, or control vehicle (25% water solution of Cremophor EL). The human equivalent dose is calculated as described in Example 8. Treatments would start two weeks after the last STZ injection in which hyperglycemia is confirmed in the diabetic mice. The mice would be weighed daily and glucose levels would be measured in fasted animals every five days.

AKT = assay: AKT:Phos AKT ratio by immunocytochemistry, high-content imaging in C2C12; format: cell-based, mouse; conditions: serum starved C2C12, 30 minutes; 4 nM-4 μM for insulin and ellagic acid dihydrate
Method: Stimulation of AKT pathways and MAPK pathways in ellagic acid dihydrate, metformin, and insulin treated cell cultures was performed. Insulin stimulates glucose uptake into cells by increasing GLUT4 activation, and AKT, specifically phos-AKT, signaling alters GLUT4 translocation. […] Cellular assays were performed using mouse myoblast C2C12 cells. […] Serum starved cells (1 hr) were treated for 30 minutes with each of the tested compounds.

glucose oxidase = glucose oxidase (Aspergillus niger, UniProt P13006); assay: Direct interaction with glucose, glucose oxidase based glucometer on serum; format: biochemical; conditions: incubated with serum at room temperature five minutes or overnight at 37° C.
Sequence of glucose oxidase (P13006 17-605, species assumed): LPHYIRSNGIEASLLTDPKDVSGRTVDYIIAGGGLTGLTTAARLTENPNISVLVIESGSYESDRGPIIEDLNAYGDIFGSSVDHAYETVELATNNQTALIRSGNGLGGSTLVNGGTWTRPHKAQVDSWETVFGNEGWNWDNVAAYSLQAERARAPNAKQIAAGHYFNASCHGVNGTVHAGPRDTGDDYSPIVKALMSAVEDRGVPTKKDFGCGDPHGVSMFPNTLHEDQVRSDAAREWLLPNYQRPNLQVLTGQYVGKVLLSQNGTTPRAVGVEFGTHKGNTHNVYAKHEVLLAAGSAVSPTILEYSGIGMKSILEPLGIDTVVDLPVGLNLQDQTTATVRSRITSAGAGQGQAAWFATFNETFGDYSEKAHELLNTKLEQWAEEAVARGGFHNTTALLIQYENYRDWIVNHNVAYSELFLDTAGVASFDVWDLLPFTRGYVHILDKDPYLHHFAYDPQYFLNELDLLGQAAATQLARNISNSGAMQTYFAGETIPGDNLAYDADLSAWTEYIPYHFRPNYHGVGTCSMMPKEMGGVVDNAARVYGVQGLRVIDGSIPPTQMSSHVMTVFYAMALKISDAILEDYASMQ
Method: Ellagic acid dihydrate was analyzed for direct interaction with glucose. A glucose oxidase based glucometer was used to measure serum glucose. Ellagic acid dihydrate was incubated with serum at room temperature for five minutes or overnight at 37° C. […] Ellagic acid dihydrate is not believed to directly interact with glucose.

SMILES: O.O.O=c1oc2c(O)c(O)cc3c(=O)oc4c(O)c(O)cc1c4c23 [ellagic acid dihydrate]
- increase in glucose uptake compared with metformin ([1]; C2C12, at 4000 nm, FIG. 5C (ellagic acid dihydrate batch 2)): greater increase in glucose uptake than metformin
- dose effect for increasing glucose uptake ([1]; C2C12, flow cytometry, 2-NBDG): dose effect for increasing glucose uptake
- glucose uptake (2-NBDG signal) relative to vehicle ([1]; C2C12, flow cytometry, vehicle 0.1% DMSO): significantly greater than vehicle treated
- increase in glucose uptake in myoblasts relative to fibroblasts ([1]; C2C12 myoblasts versus MEF fibroblasts): ~4 ×
- glucose uptake relative to insulin ([1]; myoblasts (C2C12), at most concentrations tested / equal concentrations, dihydrate): significantly more glucose uptake relative to insulin; also recorded: exceeded the uptake induced by insulin
- Estimated saturation [2]: approximately 4 mM
- activity level compared to mice treated with ellagic acid (Activity level in mice): significantly greater activity level
- mean glucose level values compared to mice treated with ellagic acid [3]: lower mean glucose level values
- weight loss compared to mice treated with ellagic acid [3]: greater decrease in weight loss
- AKT:Phos AKT ratio (log 2 scale) relative to vehicle treated cells (AKT): increase in AKT relative to Phos-AKT signal
- inhibition of the glucose oxidase reaction (glucose oxidase): no inhibition of the glucose oxidase reaction was observed
